The target of assay [1] is T1, hENPP2 (UniProtKB/SwissProt Q13822) (Homo sapiens (Human), UniProt Q13822). Briefly: hENPP2 biochemical assay, LPC as substrate. To be noted: LPC (palmitoyl 16:0) as substrate. The procedure, abridged:
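Human ENPP2 in 50 mM Tris-HCl pH 8.5, 500 mM NaCl, 5 mM KCl, 10 mM CaCl2, 0.1% fatty-acid-free BSA, reacted 30 min at 37 °C with LPC 16:0 (150 µM solution added 1:1). Released choline measured via choline oxidase/peroxidase/TOOS/4-aminoantipyrine quinoneimine dye at 555 nm; IC50 reported.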

Assay [2] concerns the target T1, hENPP2. Briefly: fluorescent hENPP2 biochemical assay, FS-3 as substrate. As to conditions: read-out: FS3-IC50. In short, it runs like this: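 hENPP2 in 50 mM Tris-HCl pH 8.0, 250 mM NaCl, 5 mM KCl, 1 mM MgCl2, 1 mM CaCl2, 0.1% fatty-acid-free BSA, preincubated with compound 30 min at room temperature. The 0.75 μM FS-3 solution was added and the mixture incubated 30 min at 30° C. Fluorescence (ex 485/em 520 nm) gives IC50.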

As a reminder, the IC50 is the point on the concentration scale where inhibition reaches its midpoint.

Take `CCc1nc2ccc(C3CCN(C(=O)OC(C)(C)C)CC3)cn2c1N(C)c1nc(-c2ccc(F)cc2)cs1` [Compound 219, tert-butyl 4-(2-ethyl-3-((4-(4-fluorophenyl)thiazol-2-yl)(methyl)amino)imidazo[1,2-a]pyridin-6-yl)piperidine-1-carboxylate]: the IC50 is over 1000 nM at hENPP2 [1] and 0.01 to 100 nM on hENPP2 [2].
For `CCc1nc2ccc(N3CCN(C(=O)C4CCNC4)CC3)cn2c1N(C)c1nc(-c2ccc(F)cc2)cs1` (centres unmarked) [Compound 47, (4-(2-ethyl-3-((4-(4-fluorophenyl)thiazol-2-yl)(methyl)amino)imidazo[1,2-a]pyridin-6-yl)piperazin-1-yl)(pyrrolidin-3-yl)methanone] the same measures were over 1000 nM and 0.01 to 100 nM.
On the same counts, the results for `CCc1nc2ccc(C3CCN(C(=O)OC(C)(C)C)CC3O)cn2c1N(C)c1nc(-c2ccc(F)cc2)cs1` (centres unmarked) [Compound 78, tert-butyl 4-(2-ethyl-3-((4-(4-fluorophenyl)thiazol-2-yl)(methyl)amino)imidazo[1,2-a]pyridin-6-yl)-3-hydroxypiperidine-1-carboxylate] are over 1000 nM and 0.01 to 100 nM.
For `CCc1nc2ccc(C3CCN(C(=O)CN4CCCC4)CC3)cn2c1N(C)c1nc(-c2ccc(F)cc2)cs1` [Compound 126, 1-(4-(2-ethyl-3-((4-(4-fluorophenyl)thiazol-2-yl)(methyl)amino)imidazo[1,2-a]pyridin-6-yl)piperidin-1-yl)-2-(pyrrolidin-1-yl) ethanone] the same measures were 100 to 500 nM and 0.01 to 100 nM.
Regarding `CCc1nc2ccc(C3CCN(S(=O)(=O)CCCCl)CC3)cn2c1N(C)c1nc(-c2ccc(F)cc2)cs1` [Compound 86, N-(6-(1-(3-chloropropylsulfonyl)piperidin-4-yl)-2-ethylimidazo[1,2-a]pyridin-3-yl)-4-(4-fluorophenyl)-N-methylthiazol-2-amine], the IC50 on hENPP2 [1] was over 1000 nM; at hENPP2 [2] it was 0.01 to 100 nM.
Consider `CCc1nc2ccc(C3CCN(C(C)C)CC3)cn2c1N(C)c1nc(-c2ccc(F)cc2)cs1` [Compound 218, N-(2-ethyl-6-(1-isopropylpiperidin-4-yl)imidazo[1,2-a]pyridin-3-yl)-4-(4-fluorophenyl)-N-methylthiazol-2-amine], for which the results for the IC50 on hENPP2 [1] and on hENPP2 [2] were over 1000 nM and 0.01 to 100 nM, respectively.
As for `CCc1nc2ccc(N3CCN(S(=O)(=O)CCCCl)CC3)cn2c1N(C)c1nc(-c2ccc(F)cc2)cs1` [Compound 55, N-(6-(4-(3-chloropropylsulfonyl)piperazin-1-yl)-2-ethylimidazo[1,2-a]pyridin-3-yl)-4-(4-fluorophenyl)-N-methylthiazol-2-amine], the IC50 is over 1000 nM against hENPP2 [1] and 0.01 to 100 nM at hENPP2 [2].
For `CCc1nc2ccc(C3CCN(S(=O)(=O)CCCN)CC3)cn2c1N(C)c1nc(-c2ccc(F)cc2)cs1` [Compound 90, N-(6-(1-(3-aminopropylsulfonyl)piperidin-4-yl)-2-ethylimidazo[1,2-a]pyridin-3-yl)-4-(4-fluorophenyl)-N-methylthiazol-2-amine] the same measures were 500 to 1000 nM and 0.01 to 100 nM.
For the compound `CCc1nc2ccc(N3CCC(O)CC3)cn2c1N(C)c1nc(-c2ccc(F)cc2)cs1` [Compound 211, 1-(2-ethyl-3-((4-(4-fluorophenyl)thiazol-2-yl)(methyl)amino)imidazo[1,2-a]pyridin-6-yl)piperidin-4-ol], the IC50 was over 1000 nM on hENPP2 [1] and 0.01 to 100 nM at hENPP2 [2].
On the same counts, the results for `CCc1nc2ccc(C3=CCOCC3)cn2c1N(C)c1nc(-c2ccc(Cl)cc2)cs1` [Compound 221, 4-(4-chlorophenyl)-N-(6-(3,6-dihydro-2H-pyran-4-yl)-2-ethylimidazo[1,2-a]pyridin-3-yl)-N-methylthiazol-2-amine] are over 1000 nM and 0.01 to 100 nM.
As to `CCc1nc2ccc(C3CCN(C4CN(C(C)=O)C4)CC3)cn2c1N(C)c1nc(-c2ccc(F)cc2)cs1` [Compound 134, 1-(3-(4-(2-ethyl-3-((4-(4-fluorophenyl)thiazol-2-yl)(methyl)amino)imidazo[1,2-a]pyridin-6-yl)piperidin-1-yl)azetidin-1-yl)ethanone], the half-inhibitory concentration (IC50) against hENPP2 [1] was 500 to 1000 nM; at hENPP2 [2] it was 0.01 to 100 nM.
On the same counts, the results for `CCc1nc2ccc(C3CCN(S(=O)(=O)CCCN4CCCC4)CC3)cn2c1N(C)c1nc(-c2ccc(F)cc2)cs1` [Compound 89, {2-Ethyl-6-[1-(3-pyrrolidin-1-yl-propane-1-sulfonyl)-piperidin-4-yl]-imidazo[1,2-a]pyridin-3-yl}-[4-(4-fluoro-phenyl)-thiazol-2-yl]-methyl-amine] are 100 to 500 nM and 0.01 to 100 nM.
For `CCc1nc2ccc(N3CCN(CC(=O)N4CC(O)C4)CC3)cn2c1N(C)c1nc(-c2ccc(F)cc2)cs1` [Compound 24, 2-(4-(2-ethyl-3-((4-(4-fluorophenyl)thiazol-2-yl)(methyl)amino)imidazo[1,2-a]pyridin-6-yl)piperazin-1-yl)-1-(3-hydroxyazetidin-1-yl)ethanone] the same measures were 100 to 500 nM and 0.01 to 100 nM.
For `CCc1nc2ccc(N3CCCCS3(=O)=O)cn2c1N(C)c1nc(-c2ccc(Cl)cc2)cs1` [Compound 207, 2-(2-ethyl-4-((4-(4-chlorophenyl)thiazol-2-yl)(methyl)amino)imidazo[1,2-a]pyridin-6-yl)-1-[1,2]thiazinane-1,1-dioxide] the same measures were over 1000 nM and 0.01 to 100 nM.
As for `CCc1nc2ccc(N3CCN(C(=O)OCCO)CC3)cn2c1N(C)c1nc(-c2ccc(F)cc2)cs1` [Compound 43, 2-hydroxyethyl 4-(2-ethyl-3-((4-(4-fluorophenyl)thiazol-2-yl)(methyl)amino)imidazo[1,2-a]pyridin-6-yl)piperazine-1-carboxylate], the figures for the IC50 against hENPP2 [1] and on hENPP2 [2] were over 1000 nM and 0.01 to 100 nM, respectively.
For `CCc1nc2ccc(N3CCNC3=O)cn2c1N(C)c1nc(-c2ccc(Cl)cc2)cs1` [Compound 183, 1-(3-((4-(4-chlorophenyl)thiazol-2-yl)(methyl)amino)-2-ethylimidazo[1,2-a]pyridin-6-yl)imidazolidin-2-one] the same measures were over 1000 nM and 0.01 to 100 nM.
For `[2H]c1sc(N(c2c(CC)nc3ccc(C4CCN(S(C)(=O)=O)CC4)cn23)C([2H])([2H])[2H])nc1-c1ccc(F)cc1` [Compound 103, 4-(4-fluorophenyl)-N-(2-ethyl-6-(1-(methylsulfonyl)piperidin-4-yl)imidazo [1,2-a]pyridin-3-yl)-N-(d3-methyl)-(d-thiazol-2)-amine], the IC50 against hENPP2 [1] lay in the range of 100 to 500 nM; at hENPP2 [2], 0.01 to 100 nM.
Regarding `CCc1nc2ccc(N3CCN(C(=O)OC(C)(C)C)CC3=O)cn2c1N(C)c1nc(-c2ccc(Cl)cc2)cs1` [Compound 63, tert-butyl 4-(3-((4-(4-chlorophenyl)thiazol-2-yl)(methyl)amino)-2-ethylimidazo[1,2-a]pyridin-6-yl)-3-oxopiperazine-1-carboxylate], the IC50 against hENPP2 [1] is over 1000 nM; on hENPP2 [2] it was 0.01 to 100 nM.
As for `CCc1nc2ccc(C3=CCN(C(=O)Nc4cccs4)CC3)cn2c1N(C)c1nc(-c2ccc(F)cc2)cs1` [Compound 208, 4-(2-ethyl-3-((4-(4-fluorophenyl)thiazol-2-yl)(methyl)amino)imidazo[1,2-a]pyridin-6-yl)-N-(thiophen-2-yl)-5,6-dihydropyridine-1(2H)-carboxamide], the values for the IC50 against hENPP2 [1] and on hENPP2 [2] were over 1000 nM and 0.01 to 100 nM, respectively.
Consider `CCc1nc2ccc(C3=CCN(S(C)(=O)=O)CC3)cn2c1N(C)c1nc(-c2ccc(F)cc2)no1` [Compound 189, N-(2-ethyl-6-(1-(methylsulfonyl)-1,2,3,6-tetrahydropyridin-4-yl)imidazo[1,2-a]pyridin-3-yl)-3-(4-fluorophenyl)-N-methyl-1,2,4-oxadiazol-5-amine], for which the figures for the IC50 on hENPP2 [1] and on hENPP2 [2] were over 1000 nM and 0.01 to 100 nM, respectively.
On to `CCc1nc2ccc(C3CCN(C(=O)CN4CC(O)C4)CC3)cn2c1N(C)c1nc(-c2ccc(F)cc2)cs1` [Compound 128, 1-(4-(2-ethyl-3-((4-(4-fluorophenyl)thiazol-2-yl)(methyl)amino)imidazo[1,2-a]pyridin-6-yl)piperidin-1-yl)-2-(3-hydroxyazetidin-1-yl)ethanone], for which the results for the IC50 against hENPP2 [1] and at hENPP2 [2] were 100 to 500 nM and 0.01 to 100 nM, respectively.
For `CCC(=O)N1CCC(c2ccc3nc(CC)c(N(C)c4nc(-c5ccc(F)cc5)cs4)n3c2)CC1` [Compound 215, 1-(4-(2-ethyl-3-((4-(4-fluorophenyl)thiazol-2-yl)(methyl)amino)imidazo[1,2-a]pyridin-6-yl)piperidin-1-yl)propan-1-one] the same measures were 100 to 500 nM and 0.01 to 100 nM.

Values taken from patent US9670204B2, “Compounds and pharmaceutical compositions thereof for the treatment of inflammatory disorders” (Galapagos NV, priority 2013, dated 2017).
